Laboratory results: article PMC467105, “A comprehensive investigation of the anion inhibition profile of a β-carbonic anhydrase from Acinetobacter baumannii for crafting innovative antimicrobial treatments” (Journal of Enzyme Inhibition and Medicinal Chemistry, 2024)
Read-outs that look alike come from different tables or passages of the source.

How the values were obtained:
[1] = target: β-AbauCA (Acinetobacter baumannii β-CA, CanB) (Acinetobacter baumannii, UniProt A0A7U3Y636); experiment: biochemical; assay type: biochemical
[2] = target: PgiCAβ (Porphyromonas gingivalis β-CA); design: method as in PMID 24146373; settings: cited from earlier work
[3] = CO2 hydrase, stopped-flow assay

Chain of UniProt A0A7U3Y636 (A0A7U3Y636 1-204): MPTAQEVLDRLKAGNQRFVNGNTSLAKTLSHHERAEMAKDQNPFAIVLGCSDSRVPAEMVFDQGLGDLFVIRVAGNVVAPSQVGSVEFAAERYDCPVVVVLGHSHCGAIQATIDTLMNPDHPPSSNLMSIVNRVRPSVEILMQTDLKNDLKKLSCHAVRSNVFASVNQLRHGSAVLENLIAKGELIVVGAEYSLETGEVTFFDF

| Structure (SMILES) | affinity / Ki for β-AbauCA (in words) [1] | Ki [2, 3] | Ki ([1]; read-out: Ki β-AbauCA) | Ki [2] | Ki [1] |
| --- | --- | --- | --- | --- | --- |
| N#CS [SCN^-, thiocyanate] | low millimolar affinity | 1.9 mM | – | – | – |
| O=NO [NO2^-, nitrite] | – | – | 31.1 mM | 7.8 mM | – |
| F[P-](F)(F)(F)(F)F [PF6^-, hexafluorophosphate] | – | 8.2 mM | – | – | – |
| CCN(CC)C(=S)S [Et2NCS2^-, diethyldithiocarbamate] | low millimolar affinity | 0.23 mM | – | – | 8.2 mM |
| O=[Te](=O)(O)O [TeO4^2-, tellurate] | – | – | 6 mM | – | – |
| F [F^-] | – | 7.8 mM | > 100 mM | – | – |
| O=S(O)O [HSO3^-, bisulphite] | – | > 100 mM | 59.1 mM | – | – |
| I [I^-] | – | 21.4 mM | > 100 mM | – | – |
| OB1OB2OB(O)OB(O1)O2 [B4O7^2-, tetraborate] | low millimolar affinity | – | 6.9 mM | – | – |
| O=C(O)O [CO3^2-, carbonate] | – | – | > 100 mM | 3.7 mM | – |
| O=S(=O)(O)C(F)(F)F [CF3SO3^-, triflate] | – | 8.5 mM | > 100 mM | – | – |
| O=S(=O)(O)O [SO4^2-, sulphate] | – | – | 79.3 mM | > 100 mM | – |
| O=C(O)O [HCO3^-, bicarbonate] | – | – | – | 7.3 mM | – |
| [O]=[V]([OH])([OH])[O][V](=[O])([OH])[OH] [V2O7^4-, divanadate] | low millimolar affinity | – | 5.8 mM | – | – |
| F[B-](F)(F)F [BF4^-, tetrafluoroborate] | – | > 100 mM | > 100 mM | – | – |
| O=S(=O)(O)OOS(=O)(=O)O [S2O8^2-, peroxydisulfate] | low millimolar affinity | 9.2 mM | 3.8 mM | – | – |
| [O]=[Sn]([OH])[OH] [SnO3^2-, stannate] | low millimolar affinity | – | 2.4 mM | – | – |
| [O]=[Re](=[O])(=[O])[O-] [ReO4^-, perrhenate] | low millimolar affinity | – | 8.1 mM | – | – |

| Structure (SMILES) | affinity / Ki for β-AbauCA (in words) [1] | Ki [2, 3] | Ki ([1]; read-out: Ki β-AbauCA) | Ki [2] | Ki [1] |
| --- | --- | --- | --- | --- | --- |
| O=P(O)(O)OP(=O)(O)O [P2O7^4-, pyrophosphate] | – | 8.2 mM | 33.6 mM | – | – |
| O=[Se](=O)(O)O [SeO4^2-, selenate] | – | – | 18.4 mM | 9.2 mM | – |
| N#CO [CNO^-, cyanate] | submillimolar | – | 0.79 mM | 0.76 mM | – |
| [O]=[Ru](=[O])(=[O])=[O] [RuO4^-, perrhuthenate] | submillimolar | – | 0.96 mM | – | – |
| NS(=O)(=O)O [Anion H2NSO3H, sulphamic acid] | submillimolar | 0.06 mM | 0.63 mM | – | – |
| Cl [Cl^-] | – | 7.5 mM | > 100 mM | – | – |
| N#C[SeH] [SeCN^-, selenocyanide] | submillimolar | – | 0.71 mM | 2.4 mM | – |
| O=S(=O)(O)NS(=O)(=O)O [NH(SO3)2^2-, iminodisulfonate] | submillimolar | 2.1 mM | 0.93 mM | – | – |
| S [HS^-, hydrogensulfide] | submillimolar | – | 0.4 mM | 4.5 mM | – |
| [O-][Cl+3]([O-])([O-])O [ClO4^-, perchlorate] | – | – | > 100 mM | > 100 mM | – |
| O=[As](O)(O)c1ccccc1 [Ph-AsO3H2, phenylarsonic acid] | – | – | – | 0.076 mM | – |
| Br [Br^-] | – | 15.9 mM | > 100 mM | – | – |
| [N-]=[N+]=[N-] [N3^-, azide] | – | – | > 100 mM | > 100 mM | – |
| NS(N)(=O)=O [Anion H2NSO2NH2, sulfamide] | low millimolar affinity | 0.078 mM | 2.1 mM | – | – |
| OB(O)c1ccccc1 [Ph-B(OH)2, phenylboronic acid] | submillimolar | – | – | 0.077 mM | 0.29 mM |
| O=[N+]([O-])O [NO3^-, nitrate] | – | > 100 mM | 47.9 mM | – | – |
| S=C(S)S [CS3^2-, trithiocarbonate] | low millimolar affinity | 4.3 mM | 3.3 mM | – | – |
